Experimental data from US7951921B2, “Multivalent carriers of bi-specific antibodies” (Immunomedics, Inc., priority 2003, dated 2011).
Primed or numbered codes have the meaning given here. DTPA′ = diethylenetriaminepentaacetic acid

Legend:
[1] = Stability of IMP 246 and its complex in fresh mouse serum, size exclusion HPLC; assay type: in vitro ADME; conditions: 37° C.
Description: […] A 10 μL aliquot was removed and mixed with 5 μL of 3.2 mg/mL 14IgG^(I253A)-(734scFv)2 and diluted with 40 μL water. A 10 μL aliquot of the diluted mixture was then examined by size exclusion HPLC.
A 4 μL aliquot of the labeled peptide solution was mixed with 10 μL of the 3.2 mg/mL hMN-14 IgG^(I253A)-(734scFv)2 and diluted in 400 μL of fresh mouse serum. The serum sample was incubated at 37° C. for 16 hr and then analyzed by size exclusion HPLC.
Three broad peaks comprised about 20%, 41% and 37% of the area under the curve of the HPLC tracing.

Raji cells = assay: Apoptosis of Raji cells after cross-linking of bound hA20IgG-(734scFv)2; assay type: cell-based; conditions: Raji cells incubated with hA20IgG-(734scFv)2, 3 days, 37 degrees C.
Description: Raji cells in culture are incubated with hA20IgG-(734scFv)2. To one set of wells is added IMP-246 to cross-link molecules of hA20IgG-(734scFv)2 bound to CD20 on the surface of the Raji cells. A second set of wells to which IMP-246 is not added serve as controls, and both sets of wells incubated at 37 degrees C.
An average of 5 molecules IMP-222 are conjugated to human serum albumin (hAlb-222). The experiment described in the paragraph above is repeated, but hAb-222 is used to cross-link molecules of hA20IgG-(734scFv)2 bound to CD20 on the surface of the Raji cells, in place of IMP-246.

[2] = tested on: hMN-14IgG^(I253A)-(734scFv)2; assay: Stoichiometry of targetable complexes, In-111 IMP 246 mixed with bsAb, size exclusion HPLC; assay type: binding; conditions: 1:10 (IMP 246:bsAb) mole ratio; peak at 8.5 min
Description: (§1) This Example describes experiments designed to determine the stoichiometry of different species of targetable complexes that arise when the targetable divalent construct IMP 246 is mixed with bsAbs hMN-14IgG^(I253A)-(734scFv)2, and hMN-14IgG-(734scFv)2.
(§2) The peptide IMP 246 was dissolved in 100 mL of a solution which contained 0.418 g citric acid and 10.06 g of HPCD buffered at pH 4.3. The solution was filter sterilized through a 0.22 ? m Millex GV filters in 1 mL aliquots into vials that were immediately frozen and lyophilized.
(§3) The IMP 246 was labeled with In-111 as follows. The In-111 was diluted with 0.5 mL water and added to a lyophilized IMP 246 kit. The solution was allowed to incubate at room temperature for 10 min. A 1.5 mL aliquot of a solution containing […] in 0.5 M NaOAc buffer pH 7.17 was then added to the kit.
(§4) The In-111-labelled IMP 246 was mixed with bsAb in a 1:10 (IMP 246:bsAb) mole ratio and then examined by size exclusion HPLC. When mixed with the mutant bsAb, i.e., hMN-14IgG^(I253A)-(734scFv)2, about 90% of the In-111 label was found at a clean sharp peak at 8.5 min (FIG. 8A). When mixed with hMN-14IgG-(734scFv)2, the peak was somewhat broader, comprised about 83% of the In-111 label and was found at 7.5 min (FIG. 8B). In contrast, the antibody:peptide complexes formed when IMP 192 was used were found at 9.5 min (FIG. 7).

hMN-14IgG-(734scFv)2 = assay: as above; assay type: binding; conditions: 1:10 (IMP 246:bsAb) mole ratio; peak at 7.5 min
Description: as §1, §2, §3, §4

[Ac-Cys-Lys(DTPA)-Tyr-Lys(DTPA)-NH2]2 (Ac-CK(DTPA′)YK(DTPA′)-NH2; also: disulfide-linked homodimer of two chains, disulfide at 1, other end not in the chain) [IMP 246]
area under the curve of HPLC tracing in distinct peak at predicted position ([1]; in presence of bi-specific antibody, mouse serum, 16 hr): ≥ 90%
stability in mouse serum ([1]; peptide alone, 16 hours): unstable
apoptosis (Raji cells): extensive apoptosis
In-111 label found in complex peak [2]: about 90%
In-111 label found in complex peak (hMN-14IgG-(734scFv)2): about 83%
